Experimental data taken from PMC9825645 (Traffic (Copenhagen, Denmark), 2022).

Biological target: T1, AMPH-1 (Amphiphysin 1) (Caenorhabditis elegans, UniProt Q21004)
T1 sequence (Q21004 1-461): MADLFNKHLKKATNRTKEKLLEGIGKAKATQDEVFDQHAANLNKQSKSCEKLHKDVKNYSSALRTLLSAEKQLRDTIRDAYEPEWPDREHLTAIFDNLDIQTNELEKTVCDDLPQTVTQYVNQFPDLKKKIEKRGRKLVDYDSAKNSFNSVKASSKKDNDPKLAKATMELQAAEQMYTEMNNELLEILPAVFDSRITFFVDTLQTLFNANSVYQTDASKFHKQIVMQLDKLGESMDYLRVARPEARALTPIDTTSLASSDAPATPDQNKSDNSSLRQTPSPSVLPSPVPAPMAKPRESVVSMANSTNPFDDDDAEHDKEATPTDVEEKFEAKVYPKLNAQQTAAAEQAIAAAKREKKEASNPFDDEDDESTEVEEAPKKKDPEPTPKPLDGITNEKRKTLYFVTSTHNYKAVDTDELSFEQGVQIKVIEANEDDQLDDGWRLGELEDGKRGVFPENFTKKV
Test: membrane fission of PS liposomes by burst analysis spectroscopy
Assay type: biochemical
Settings: 0.5 mM GDP, 1 μM AMPH-1, 30 min; stimulates fission

Nc1nc2c(ncn2[C@@H]2O[C@H](COP(=O)(O)OP(=O)(O)O)[C@@H](O)[C@H]2O)c(=O)[nH]1 [GDP] was tested, and the “membrane fission of PS liposomes by burst analysis spectroscopy” value was “GDP stimulates fission to almost the same extent as seen in the presence of GTP”.
